Source: US20240052582A1, “COMPOSTABLE TURF WITH DECOMPOSITION INHIBITOR” (Polytex Sportbelage Produktions-GmbH, priority 2017, published 2024)

Assay: Amount of decomposition inhibitor necessary for a minimum life expectancy of compostable artificial or hybrid turf
Conditions: inhibitor within backing
Excerpt: Due to the wide variety of use case scenarios, stadium architectures and climatic conditions, the amount of decomposition inhibitor that ensures a sufficient life expectancy without unduly delaying the decomposition process is preferably determined empirically.

Oc1cc(Cl)ccc1Oc1ccc(Cl)cc1Cl [Triclosan, 5-chlor-2-(2,4-dichlorphenoxy)-phenol]
Amount of Decomposition inhibitor necessary for a life expectancy of the turf material of at least [. . .] 6 Month (life expectancy at least 6 Month): 0.0005% by % by weight of backing | Amount of Decomposition inhibitor necessary for a life expectancy of the turf material of at least [. . .] 12 Month (life expectancy at least 12 Month): 0.001% by % by weight of backing
